According to patent US12660819B2, “Herbicidal derivatives” (SYNGENTA CROP PROTECTION AG, priority 2020, dated 2026):

Columns and labels:
Type in all cases: in vivo
[1] = tested on: Abutilon theophrasti (ABUTH); experiment: Pre-emergence Test (glasshouse, percentage damage to the plant); conditions: 1000 g/ha unless otherwise stated, five-point scale
[2] = tested on: Zea mays (ZEAMX); experiment: as above; conditions: 1000 g/ha unless otherwise stated, five-point scale
[3] = tested on: Echinochloa crus-galli (ECHCG); experiment: as above; conditions: 1000 g/ha unless otherwise stated, five-point scale
[4] = tested on: Amaranthus retoflexus (AMARE); experiment: as above; conditions: 1000 g/ha unless otherwise stated, five-point scale
[5] = tested on: Ipomoea hederacea (IPOHE); experiment: Post-emergence Test (glasshouse, percentage damage to the plant); conditions: post-emergence spray, 1000 g/ha unless otherwise stated, evaluated after 13 days
Description: (§1) Seeds of a variety of test species are sown in standard soil in pots (Amaranthus retoflexus (AMARE), Solanum nigrum (SOLNI), Setaria faberi (SETFA), Lolium perenne (LOLPE), Echinochloa crus-galli (ECHCG), Ipomoea hederacea (IPOHE), Abutilon theophrasti (ABUTH), Zea mays (ZEAMX), Amaranthus palmeri (AMAPA). After 8 days cultivation under controlled conditions in a glasshouse (at 24° C./16° C., day/night; 14 hours light; 65% humidity), the plants are sprayed with an aqueous spray solution derived from the formulation of the technical active ingredient in acetone/water (50:50) solution containing 0.5% Tween 20 (polyoxyethelyene sorbitan monolaurate, CAS RN 9005-64-5). Compounds are applied at 1000 g/ha unless otherwise stated. The test plants are then grown in a glasshouse under controlled conditions in a glasshouse (at 24° C./16° C., day/night; 14 hours light; 65% humidity) and watered twice daily. After 13 days the test is evaluated for the percentage damage caused to the plant. The biological activities are shown in the following table on a five-point scale (5=81-100%; 4=61-80%; 3=41-60%; 2=21-40%; 1=0-20%).

[6] = tested on: Setaria faberi (SETFA); experiment: as above; conditions: post-emergence spray, 1000 g/ha unless otherwise stated, evaluated after 13 days
Description: as §1

[7] = tested on: Amaranthus retoflexus (AMARE); experiment: as above; conditions: post-emergence spray, 1000 g/ha unless otherwise stated, evaluated after 13 days
Description: as §1

[8] = tested on: Zea mays (ZEAMX); experiment: as above; conditions: post-emergence spray, 1000 g/ha unless otherwise stated, evaluated after 13 days
Description: as §1

[9] = tested on: Setaria faberi (SETFA); experiment: Pre-emergence Test (glasshouse, percentage damage to the plant); conditions: 1000 g/ha unless otherwise stated, five-point scale
[10] = tested on: Ipomoea hederacea (IPOHE); experiment: as above; conditions: 1000 g/ha unless otherwise stated, five-point scale

| Compound | percentage damage to the plant, ABUTH [1] | percentage damage to the plant, ZEAMX [2] | percentage damage to the plant, ECHCG [3] | percentage damage to the plant, AMARE [4] | Post-emergence Test IPOHE, percentage damage to the plant (five-point scale) [5] | Post-emergence Test SETFA, percentage damage to the plant (five-point scale) [6] | Post-emergence Test AMARE, percentage damage to the plant (five-point scale) [7] | Post-emergence Test ZEAMX, percentage damage to the plant (five-point scale) [8] | percentage damage to the plant, SETFA [9] | percentage damage to the plant, IPOHE [10] |
| --- | --- | --- | --- | --- | --- | --- | --- | --- | --- | --- |
| CCn1c(C)c(-c2ccc(Cl)cc2OC)c(=O)c(C(=O)O)c1-c1ccc(Cl)cc1 [Compound 184, 5-(4-chloro-2-methoxy-phenyl)-2-(4-chlorophenyl)-1-ethyl-6-methyl-4-oxo-pyridine-3-carboxylic acid] | 1 (1=0-20%) | 0 | 1 (1=0-20%) | 1 (1=0-20%) | 3 (3=41-60%) | 5 (5=81-100%) | 4 (4=61-80%) | 3 (3=41-60%) | 1 (1=0-20%) | 0 |
| CCn1c(C)c(-c2cc(Cl)ccc2Cl)c(=O)c(C(=O)O)c1-c1ccc(Cl)cc1 [Compound 185, 2-(4-chlorophenyl)-5-(2,5-dichlorophenyl)-1-ethyl-6-methyl-4-oxo-pyridine-3-carboxylic acid] | 0 | 0 | 0 | 0 | 2 (2=21-40%) | 3 (3=41-60%) | 3 (3=41-60%) | 1 (1=0-20%) | 0 | 0 |
| CCn1c(C)c(-c2ccc(F)cc2OC)c(=O)c(C(=O)O)c1-c1ccc(Cl)cc1 [Compound 186, 2-(4-chlorophenyl)-1-ethyl-5-(4-fluoro-2-methoxy-phenyl)-6-methyl-4-oxo-pyridine-3-carboxylic acid] | 3 (3=41-60%) | 0 | 1 (1=0-20%) | 1 (1=0-20%) | 2 (2=21-40%) | 3 (3=41-60%) | 1 (1=0-20%) | 2 (2=21-40%) | 2 (2=21-40%) | 1 (1=0-20%) |
| CCn1c(C)c(-c2ccc(C#N)c(C(F)(F)F)c2)c(=O)c(C(=O)O)c1-c1ccc(Cl)cc1 [Compound 187, 2-(4-chlorophenyl)-5-[4-cyano-3-(trifluoromethyl)phenyl]-1-ethyl-6-methyl-4-oxo-pyridine-3-carboxylic acid] | 3 (3=41-60%) | 1 (1=0-20%) | 1 (1=0-20%) | 1 (1=0-20%) | 3 (3=41-60%) | 2 (2=21-40%) | 3 (3=41-60%) | 2 (2=21-40%) | 2 (2=21-40%) | 2 (2=21-40%) |
| CCn1c(C)c(-c2cc(Cl)cc(Cl)c2)c(=O)c(C(=O)O)c1-c1ccc(Cl)cc1 [Compound 188, 2-(4-chlorophenyl)-5-(3,5-dichlorophenyl)-1-ethyl-6-methyl-4-oxo-pyridine-3-carboxylic acid] | 0 | 0 | 0 | 0 | 1 (1=0-20%) | 0 | 0 | 1 (1=0-20%) | 0 | 0 |
| CCn1c(C)c(-c2cc(OC)ccc2F)c(=O)c(C(=O)O)c1-c1ccc(Cl)cc1 [Compound 189, 2-(4-chlorophenyl)-1-ethyl-5-(2-fluoro-5-methoxy-phenyl)-6-methyl-4-oxo-pyridine-3-carboxylic acid] | 3 (3=41-60%) | 0 | 2 (2=21-40%) | 1 (1=0-20%) | 1 (1=0-20%) | 2 (2=21-40%) | 2 (2=21-40%) | 1 (1=0-20%) | 2 (2=21-40%) | 1 (1=0-20%) |
| CCn1c(C)c(-c2cc(F)cc(C#N)c2)c(=O)c(C(=O)O)c1-c1ccc(Cl)cc1 [Compound 190, 2-(4-chlorophenyl)-5-(3-cyano-5-fluoro-phenyl)-1-ethyl-6-methyl-4-oxo-pyridine-3-carboxylic acid] | 0 | 2 (2=21-40%) | 2 (2=21-40%) | 1 (1=0-20%) | 1 (1=0-20%) | 2 (2=21-40%) | 1 (1=0-20%) | 1 (1=0-20%) | 2 (2=21-40%) | 1 (1=0-20%) |
| CCn1c(C)c(-c2ccc(Cl)cc2Cl)c(=O)c(C(=O)O)c1-c1ccc(Cl)cc1 [Compound 193, 2-(4-chlorophenyl)-5-(2,4-dichlorophenyl)-1-ethyl-6-methyl-4-oxo-pyridine-3-carboxylic acid] | 2 (2=21-40%) | 1 (1=0-20%) | 1 (1=0-20%) | 2 (2=21-40%) | 3 (3=41-60%) | 4 (4=61-80%) | 5 (5=81-100%) | 2 (2=21-40%) | 2 (2=21-40%) | 0 |
| CCn1c(C)c(-c2ccc([N+](=O)[O-])cc2)c(=O)c(C(=O)O)c1-c1ccc(Cl)cc1 [Compound 194, 2-(4-chlorophenyl)-1-ethyl-6-methyl-5-(4-nitrophenyl)-4-oxo-pyridine-3-carboxylic acid] | 0 | 2 (2=21-40%) | 0 | 0 | 0 | 2 (2=21-40%) | 0 | 1 (1=0-20%) | 0 | 0 |
| CCn1c(C)c(-c2ccc(Cl)c(Cl)c2)c(=O)c(C(=O)O)c1-c1ccc(Cl)cc1 [Compound 195, 2-(4-chlorophenyl)-5-(3,4-dichlorophenyl)-1-ethyl-6-methyl-4-oxo-pyridine-3-carboxylic acid] | 0 | 0 | 2 (2=21-40%) | 2 (2=21-40%) | 3 (3=41-60%) | 2 (2=21-40%) | 4 (4=61-80%) | 2 (2=21-40%) | 1 (1=0-20%) | 0 |
| CCn1c(C)c(-c2ccc(Cl)c(C#N)c2)c(=O)c(C(=O)O)c1-c1ccc(Cl)cc1 [Compound 196, 5-(4-chloro-3-cyano-phenyl)-2-(4-chlorophenyl)-1-ethyl-6-methyl-4-oxo-pyridine-3-carboxylic acid] | 0 | 0 | 2 (2=21-40%) | 1 (1=0-20%) | 3 (3=41-60%) | 3 (3=41-60%) | 3 (3=41-60%) | 2 (2=21-40%) | 1 (1=0-20%) | 1 (1=0-20%) |
